Assay results: patent publication EP0007319A1, “Indan-1-carboxylic acid derivatives,process for their preparation and pharmaceutical preparations containing these compounds” (priority 1978, dated 1980)

Legend:
[1] = system: Magen; experiment: Ulcer test (gastric ulceration); type: in vivo, Wistar-Eatten (SPF)
Source text: Eine häufige Komplikation bei der Therapie mit nichtsteroidalen Entzündungshemmern stellt das Auftreten von Magenulcerationen dar. Diese Nebenwirkung kann im Tierversuch nachgewiesen werden, wobei als Dosis die Menge Testsubstanz verwendet wird, bei der im Adjuvans-Arthritis Test eine 40 %ige Abheilung beobachtet wird. Der Ulkus-Test wird wie folgt durchgeführt.
Es werden männliche Wistar-Eatten (SPF) verwandt. Die Tiere liege in einer Gewichtsspanne von 130 + 10 g. 16 Stunden vor Versuchsbeginn werden die Tiere vom Futter abgesetzt; sie erhalten Wasser ad libitum.
Pro Dosis werden 5 Tiere eingesetzt. Die Substanzen werden einmal oral, in Natriumelorid gelöst' oder als Kristallsuspension unter Zusatz von 85 mg% Myrj 53_appliziert.
3 Stunden nach Substanzapplikation injiziert man 1 ml einer 3 %igen Lösung des Farbstoffs Diphenylreinblau intravenös und tötet das Tier. Der Magen wird reseziert und mikroskopisch auf Anzahl von Epithclläsionen und Ulcera, die durch Farbstoffanreichcrunsen hervortreten, untersucht.

[2] = system: Adjuvans-Arthritis; experiment: Adjuvant arthritis test (antiphlogistic activity); type: in vivo, Ratten des Stammes Lewis (LEW); settings: Rattus norvegicus; dose giving 40 % healing of right hind paw; M. butyricum adjuvant; oral, daily over 4 days from day 11; Lewis rats; read-out: Adjuvans-Arthritis Test in mg/kg Tier (ED40)
Source text: Die antiphlogistische Wirksamkeit der eriindungsgemäßen Substanzen kann mit Hilfe des bekannten Adjuvans-Arthritis-Testes ermittelt werden, der wie folgt durchgeführt wird:
Es werden weibliche und männliche Ratten des Stammes Lewis (LEW) in der Gewichtsspanne zwischen 110 - 190 g verwendet. Die Tiere erhalten Trinkwasser und Altromin-Preßfutter ad libitum.
Für jede Dosisgruppe werden 10 Ratten eingesetzt .
Mycobacterium butyricum der Firma Difko, Detroit, wird als Reizmittel verwandt. Eine Suspension von 0,5 mg M. butyricum in 0,1 ml dünnflüssigem Paraffin. (DAB 7) wird in die rechte Hinterpfote subplantar injiziert.
Die Testsubstanzen werden vom 11. Versuchstag an täglich über 4 Tage oral gegeben. Die Substanzen werden als klare wässrige Lösung oder als Kristallsuspension unter Zusatz von Myrj 53 (85 mg.%) in isotonischer Natriumchlorid-Lösung verabreicht.
Die Ratten werden in bezug auf ihr Köpergewicht möglichst gleichmäßig in verschiedene Gruppen eingeteilt. Nach plethysmographischej Volumenmessung der rechten Hinterpfote wird in diese subplantar 0,1 ml Adjuvans injiziert. Die rechten Hinterpfoten werden vom 14. Versuchstag bis zum Versuchsende gemessen. Die Versuchsdauer beträgt 3 Wochen.
Bestimmt wird die Dosis an Testsubstanz, bei der eine 40 %ige Abheilung beobachtet wird (=ED40).

[3] = single oral dose equal to the ED40 of the adjuvant arthritis test, male Wistar rats, fasted 16 h, stomach examined 3 h after application

In the case of `CC(C)Cc1ccc(C(C)C(=O)O)cc1` (stereo not drawn) [Verbindung 1], the “Anzahl der Magenulzera bei gleicher Dosis” value ([1]; rat, in vivo, po) is reported as 6,8 and the ED40 [2] is reported as 100 mg/kg.

For `CC(C(=O)O)c1ccc(CC2CC2)cc1` (stereo not drawn) [Verbindung 5, 2-(4-Cyclopropylmethyl-phenyl)-propionsäure], the “Anzahl der Magenulzera bei gleicher Dosis” value [1, 3] was 5,4 and the ED40 [2] was 90 mg/kg.

`O=C(O)C1CCc2cc(CC3CCCC3)c(Cl)cc21` (stereo not drawn) [Verbindung 8, 6-Chlor-5-cyclopentyl-methyl-indan-1-carbonsäure] was tested, and the “Anzahl der Magenulzera bei gleicher Dosis” value [1, 3] was 2,2 and the ED40 [2] was 30 mg/kg.

For `CC(C(=O)O)c1ccc(CC2CCCC2)c(Cl)c1` (stereo not drawn) [Verbindung 7, 2-(3-Chlor-4-cyclopentyl-methyl-phenyl)-propionsäure], the “Anzahl der Magenulzera bei gleicher Dosis” value [1, 3] was 0,6 and the ED40 [2] was 3 mg/kg.

With `O=C(O)C1CCc2cc(C3CCCCC3)ccc21` (stereo not drawn) [Verbindung 3, 5-Cyclohexyl-indan-1-carbonsäure] the “Anzahl der Magenulzera bei gleicher Dosis” value ([1]; rat, in vivo, po) was 8,3 and the ED40 [2] was 50 mg/kg.

With `O=C(O)C1CCc2cc(C=C3CCCC3)c(Cl)cc21` (stereo not drawn) [Verbindung 9, 6-Chlor-5-cyclopentyliden-methyl-indan-1-carbon-säure] the “Anzahl der Magenulzera bei gleicher Dosis” value [1, 3] was 0,7 and the ED40 [2] was 40 mg/kg.

With `CC(C(=O)O)c1ccc(CC2CCCC2)cc1` (stereo not drawn) [Verbindung 6, 2-(4-Cyclopentylmethyl-phenyl)-propionsäure] the “Anzahl der Magenulzera bei gleicher Dosis” value [1, 3] was 0,6 and the ED40 [2] was 10 mg/kg.

For `O=C(O)C1CCc2cc(C3CCCCC3)c(Cl)cc21` (stereo not drawn) [Verbindung 4, 6-Chlor-5-cyclohexyl-indan-1-carbonsäure], the “Anzahl der Magenulzera bei gleicher Dosis” value ([1]; rat, in vivo, po) was 7,8 and the ED40 [2] was 4 mg/kg.

In the case of `CC(C(=O)O)c1ccc(C2CCCCC2)cc1` (stereo not drawn) [Verbindung 2, 2-(4-Cyclohexyl-phenyl)-propionsäure], the “Anzahl der Magenulzera bei gleicher Dosis” value ([1]; rat, in vivo, po) is reported as 7,6 and the ED40 [2] is reported as 40 mg/kg.
